Measured values taken from paper PMC10096163, “Structural Insights and Intermolecular Energy for Some Medium and Long-Chain Testosterone Esters” (Molecules, 2023).
In brackets after ≈: the same amount, converted by molar mass. Like-named read-outs stand apart in the source and are kept apart here.

Legend:
[1] = Solubility of esters in benzyl alcohol / benzyl benzoate / oil mixtures; assay type: physicochemical; details: for solubility: oil or lipid, thermodynamic from solid
Protocol: The esters’ solubility (mg/mL) was evaluated in mixtures which included different solvents and organic oils, such as medium-chain triglyceride (MCT), apricot, grape seed (GSO), castor, cottonseed, […] sesame oil.
The solutions contained mixtures of benzyl alcohol, benzyl benzoate and oil, with a volumetric ratio of 2% benzyl alcohol, 20% benzyl benzoate and 78% oil. Numerous pharmaceuticals of various lipophilic agents (various steroids were included) use benzyl benzoate as a co-solvent/solubilizer; benzyl alcohol behaves as well as a solvent and inhibits the microbial growth, and meanwhile the oils act as carriers.
In certain cases, an excess of raw samples remained undissolved (in suspension) and small quantities of mixtures were added, ensuring that the resulting solutions became homogenous, clear and transparent. Three measurements were taken to improve accuracy, and their average value was used.

[2] = cited from earlier work
[3] = design: method as in PMID 36295310; details: short esters, previously reported; cited from earlier work
[4] = 14 °C, 2% benzyl alcohol, 20% benzyl benzoate, 78% medium-chain triglyceride, 14 °C, average of three measurements, read-out: Solubility MCT
[5] = 14 °C, average over the six oil mixtures, 14 °C, read-out: Average solubility
[6] = benzyl alcohol / benzyl benzoate / apricot oil mixture, 14 °C, 2% benzyl alcohol, 20% benzyl benzoate, 78% apricot oil, 14 °C, average of three measurements, read-out: Solubility APRICOT
[7] = benzyl alcohol / benzyl benzoate / castor oil mixture, 14 °C, 2% benzyl alcohol, 20% benzyl benzoate, 78% castor oil, 14 °C, average of three measurements, read-out: Solubility CASTOR
[8] = benzyl alcohol / benzyl benzoate / cottonseed oil mixture, 14 °C, 2% benzyl alcohol, 20% benzyl benzoate, 78% cottonseed oil, 14 °C, average of three measurements, read-out: Solubility COTTON
[9] = benzyl alcohol / benzyl benzoate / grape seed oil mixture, 14 °C, 2% benzyl alcohol, 20% benzyl benzoate, 78% grape seed oil, 14 °C, average of three measurements, read-out: Solubility GSO
[10] = benzyl alcohol / benzyl benzoate / sesame oil mixture, 14 °C, 2% benzyl alcohol, 20% benzyl benzoate, 78% sesame oil, 14 °C, average of three measurements, read-out: Solubility SESAME
[11] = esterified form, intramuscular or subcutaneous injection

| Compound | solubility [1, 4] | solubility [1, 5] | solubility [1, 6] | solubility [1, 7] | solubility [1, 8] | solubility [1, 9] | solubility [1, 10] | Solubility, averaging [3] | Half-life [2, 11] | further results |
| --- | --- | --- | --- | --- | --- | --- | --- | --- | --- | --- |
| C[C@]12CC[C@H]3[C@@H](CCC4=CC(=O)CC[C@@]43C)[C@@H]1CC[C@@H]2OC(=O)CCC1CCCC1 [TCyp, Androst-4-en-17β-ol-3-one 17β-cyclopentylpropionate] | 257 mg/mL (≈ 623 mM) | ~255 mg/mL (≈ 618 mM) | 238 mg/mL (≈ 576 mM) | 287 mg/mL (≈ 695 mM) | 236 mg/mL (≈ 573 mM) | 239 mg/mL (≈ 580 mM) | 278 mg/mL (≈ 674 mM) |  |  |  |
| CCCCCCCCCC(=O)OC1CCC2C3CCC4=CC(=O)CCC4(C)C3CCC12C (stereo not drawn) [TDec, Androst-4-en-17β-ol-3-one 17β-decanoate] | 597 mg/mL (≈ 1350 mM) | 534 mg/mL (≈ 1210 mM) | 537 mg/mL (≈ 1210 mM) | 530 mg/mL (≈ 1200 mM) | 496 mg/mL (≈ 1120 mM) | 497 mg/mL (≈ 1120 mM) | 549 mg/mL (≈ 1240 mM) |  |  | Solubility fold greater than the other esters ([1]; TDec compared with TCyp and TUnd, average solubility): 2.5–3 fold |
| C[C@]12CC[C@H]3[C@@H](CCC4=CC(=O)CC[C@@]43C)[C@@H]1CC[C@@H]2O [Testosterone, 17β-Hydroxyandrost-4-en-3-one] |  |  |  |  |  |  |  |  |  | Half-life ([2]; non-esterified testosterone): a few hours |
| CC(C)CCC(=O)O[C@H]1CC[C@H]2[C@@H]3CCC4=CC(=O)CC[C@]4(C)[C@H]3CC[C@]12C [isocaproate] |  |  |  |  |  |  |  | 447 mg/mL (≈ 1160 mM) |  |  |
| CC(=O)O[C@H]1CC[C@H]2[C@@H]3CCC4=CC(=O)CC[C@]4(C)[C@H]3CC[C@]12C [testosterone acetate] |  |  |  |  |  |  |  | 110 mg/mL | less than 24 h |  |
| Androst-4-en-17β-ol-3-one 17β-undecanoate [TUnd] |  |  |  |  |  |  |  |  | up to 36 days | Solubility APRICOT ([1]; 2% benzyl alcohol, 20% benzyl benzoate, 78% apricot oil, 14 °C, average of three measurements): 200.1 mg/mL; Solubility CASTOR ([1]; 2% benzyl alcohol, 20% benzyl benzoate, 78% castor oil, 14 °C, average of three measurements): 196.3 mg/mL; Solubility COTTON ([1]; 2% benzyl alcohol, 20% benzyl benzoate, 78% cottonseed oil, 14 °C, average of three measurements): 195.5 mg/mL; Solubility GSO ([1]; 2% benzyl alcohol, 20% benzyl benzoate, 78% grape seed oil, 14 °C, average of three measurements): 183.1 mg/mL; Solubility MCT ([1]; 2% benzyl alcohol, 20% benzyl benzoate, 78% medium-chain triglyceride, 14 °C, average of three measurements): 201.8 mg/mL; Solubility SESAME ([1]; 2% benzyl alcohol, 20% benzyl benzoate, 78% sesame oil, 14 °C, average of three measurements): 209.1 mg/mL; Average solubility ([1]; average over the six oil mixtures, 14 °C): roughly 197 mg/mL |
